The source of these data is patent publication US11667649B2, “Heteroaromatic macrocyclic ether chemotherapeutic agents” (Nuvalent, Inc., priority 2020, dated 2023).

Test [1] addresses T1, ALK-wt kinase domain (Homo sapiens, UniProt Q9UM73).
T1 construct: TRKA-wt (1 nM, BPS Bio, 40280) kinase domains in buffer; purchased Carna 08-518
Briefly: Biochemical kinase assay, ALK-wt. The settings on record: 2 mM ATP substrate solution, read-out: Ki^app ALK-wt. As for the experimental part: (§1) First, 250 nL of compound dissolved in DMSO (100-fold of the desired concentration) was dispensed into a 384-well plate. A 12.5 μL substrate solution containing ATP (2 mM) and fluorogenic phosphorylation substrate AQT0101 (26 μM for ALK and ROS1, AssayQuant) or AQT0104 (26 μM for TRKA, AssayQuant) in buffer (50 mM HEPES pH 7.5, 0.01% Brij-35, 0.5 mM EGTA, 10 mM MgCl2) was added and mixed thoroughly. Then, a 12.5 μL kinase solution containing ALK-wt (1.5 nM, Carna, 08-518), ALK ALK L1196M/G1202R (3 nM, SignalChem, A19-12NG), ROS1-wt (0.6 nM, Carna, 08-163), ROS1-G2032R (0.5 nM, SignalChem, R14-12BG), or TRKA-wt (1 nM, BPS Bio, 40280) kinase domains in buffer ([…] HEPES pH 7.5, 0.01% Brij-35, 2% glycerol, 0.4 mg/mL BSA, 0.5 mM EGTA, and 10 mM MgCl2) was added and mixed thoroughly. The plate was sealed and read by SpectraMax Paradigm at λ=485 nm every 2 minutes for 120 minutes at 30° C. Initial rates of reaction (v) were calculated from the change in fluorescence intensity over time during the initial, linear portion of the reaction. Finally, apparent inhibitory constants (Ki^app) were determined from regression of v and I (inhibitor concentration) to Morrison Equation (E=enzyme concentration): […]

For test [2], the target named is T2, TRKA-wt kinase domain (Homo sapiens, UniProt P04629).
T2 construct: TRKA-wt (1 nM, BPS Bio, 40280) kinase domains in buffer; purchased BPS Bio 40280
Briefly: Biochemical kinase assay, TRKA-wt. The settings on record: 2 mM ATP substrate solution, read-out: Ki^app TRKA-wt. As for the experimental part: as §1

For test [3], the target named is T3, ALK L1196M/G1202R kinase domain (Homo sapiens, UniProt Q9UM73, G1202R/L1196M).
T3 construct: TRKA-wt (1 nM, BPS Bio, 40280) kinase domains in buffer; purchased SignalChem A19-12NG
Put plainly: Biochemical kinase assay, ALK L1196M/G1202R. The settings on record: 2 mM ATP substrate solution, read-out: Ki^app ALK-L1196M-G1202R. As for the experimental part: as §1

Test [4] deals with TPM3-NTRK1-wt IC50 / primary target (e.g. CD74-ROS1-wt) IC50, Ba/F3 cells. Put plainly: Cell assay TRKA selectivity (TRKA potency divided by primary target potency). Format: cell-based. The settings on record: for TPM3-NTRK1-wt/CD74-ROS1-G2032R: TRKA selectivity ratio: TPM3-NTRK1-wt IC50 / CD74-ROS1-G2032R IC50, Ba/F3 cells; for TPM3-NTRK1-wt/CD74-ROS1-wt: TRKA selectivity ratio: TPM3-NTRK1-wt IC50 / CD74-ROS1-wt IC50, Ba/F3 cells; for TPM3-NTRK1-wt/EML4-ALK-L1196M-G1202R: TRKA selectivity ratio: TPM3-NTRK1-wt IC50 / EML4-ALK-L1196M-G1202R IC50, Ba/F3 cells; for TPM3-NTRK1-wt/EML4-ALK-wt: TRKA selectivity ratio: TPM3-NTRK1-wt IC50 / EML4-ALK-wt IC50, Ba/F3 cells. The method in brief:
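IL-3-independent Ba/F3 lines stably expressing TPM3-TRKA or the primary fusion (e.g. CD74-ROS1 wt) were exposed to 3-fold compound dilutions for 72 h. Viability was read by CellTiter-Glo luminescence, with IC50 from four-parameter logistic fit. Selectivity is TPM3-NTRK1 IC50 divided by primary-target IC50, binned A (>30-fold) to D (<1).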

Consider `C[C@H]1Oc2cc(cnc2N)-c2c(cnn2CC2(C)CC2)Cc2cn(C)nc2-c2ccc(F)cc21` [Compound 159], for which the Ki was under 50 nM in test [1], over 500 nM in test [2] and under 50 nM in test [3].

For the compound `CCc1nn(C)c2c1-c1cnc(N)c(c1)O[C@H](C)c1cc(F)ccc1-c1nc(C)sc1C2` [Compound 173], the Ki in test [2] and in test [3] was under 50 nM in each case.

In the case of `C[C@H]1Oc2cc(cnc2N)-c2c(CC(F)F)nn(C)c2Cc2cn(C)nc2-c2ccc(F)cc21` [Example 172, (19R)-3-(2,2-difluoroethyl)-16-fluoro-5,10,19-trimethyl-20-oxa-4,5,10,11,23-pentaazapentacyclo[19.3.1.0^2,^6.0^8,^12.0^13,^18]pentacosa-1(24),2(6),3,8,11,13,15,17,21(25),22-decaen-22-amine], in test [4], the TPM3-NTRK1-wt/CD74-ROS1-G2032R entry was “A (bin A for very high selectivity, ratio>30-fold)”; the TPM3-NTRK1-wt/CD74-ROS1-wt entry was “A (bin A for very high selectivity, ratio>30-fold)”; the TPM3-NTRK1-wt/EML4-ALK-L1196M-G1202R result is “A (bin A for very high selectivity, ratio>30-fold)”; the TPM3-NTRK1-wt/EML4-ALK-wt result is on record as “A (bin A for very high selectivity, ratio>30-fold)”.

In the case of `CCc1nn(C)c2c1-c1cnc(N)c(c1)O[C@H](C)c1cc(F)ccc1-c1nc(C)sc1C2` [Example 173, (19R)-3-ethyl-16-fluoro-5,10,19-trimethyl-20-oxa-9-thia-4,5,11,23-tetraazapentacyclo[19.3.1.0^2,^6.0^8,^12.0^13,^18]pentacosa-1(24),2(6),3,8(12),10,13,15,17,21(25),22-decaen-22-amine], in test [4], the TPM3-NTRK1-wt/CD74-ROS1-G2032R result is “A (bin A for very high selectivity, ratio>30-fold)”; the TPM3-NTRK1-wt/CD74-ROS1-wt result is recorded as “A (bin A for very high selectivity, ratio>30-fold)”; the TPM3-NTRK1-wt/EML4-ALK-L1196M-G1202R entry is “B (bin B for high selectivity, ratio>10-fold)”; the TPM3-NTRK1-wt/EML4-ALK-wt entry is “A (bin A for very high selectivity, ratio>30-fold)”.

As for `C[C@H]1Oc2cc(cnc2N)-c2c(nn(C)c2C2CCC2)Cc2ccnn2-c2ccc(F)cc21` [Example 174, (19R)-3-cyclobutyl-16-fluoro-4,19-dimethyl-20-oxa-4,5,11,12,23-pentaazapentacyclo[19.3.1.0^2,^6.0^8,^12.0^13,^18]pentacosa-1(24),2,5,8,10,13,15,17,21(25),22-decaen-22-amine], in test [4], the TPM3-NTRK1-wt/CD74-ROS1-G2032R entry is given as “B (bin B for high selectivity, ratio>10-fold)”; the TPM3-NTRK1-wt/CD74-ROS1-wt result is reported as “A (bin A for very high selectivity, ratio>30-fold)”; the TPM3-NTRK1-wt/EML4-ALK-L1196M-G1202R entry is on record as “C (bin C for moderate selectivity, ratio≥1)”; the TPM3-NTRK1-wt/EML4-ALK-wt result is recorded as “A (bin A for very high selectivity, ratio>30-fold)”.

As to `CCc1nn(C)c2c1-c1cnc(N)c(c1)OCc1cc(F)ccc1-c1nc(C)sc1C2` [Example 175, 3-ethyl-16-fluoro-5,10-dimethyl-20-oxa-9-thia-4,5,11,23-tetraazapentacyclo[19.3.1.0^2,^6.0^8,^12.0^13,^18]pentacosa-1(24),2(6),3,8(12),10,13,15,17,21(25),22-decaen-22-amine], in test [4], the TPM3-NTRK1-wt/CD74-ROS1-G2032R result was “A (bin A for very high selectivity, ratio>30-fold)”; the TPM3-NTRK1-wt/CD74-ROS1-wt entry was “A (bin A for very high selectivity, ratio>30-fold)”; the TPM3-NTRK1-wt/EML4-ALK-L1196M-G1202R entry is reported as “B (bin B for high selectivity, ratio>10-fold)”; the TPM3-NTRK1-wt/EML4-ALK-wt entry is listed as “A (bin A for very high selectivity, ratio>30-fold)”.

As to `CCc1nn(C)c2c1-c1cnc(N)c(c1)OCc1cc(F)ccc1-c1nn(C)cc1C2` [Example 176, 3-ethyl-16-fluoro-5,10-dimethyl-20-oxa-4,5,10,11,23-pentaazapentacyclo[19.3.1.0^2,^6.0^8,^12.0^13,^18]pentacosa-1(24),2(6),3,8,11,13,15,17,21(25),22-decaen-22-amine], in test [4], the TPM3-NTRK1-wt/CD74-ROS1-G2032R entry is listed as “A (bin A for very high selectivity, ratio>30-fold)”; the TPM3-NTRK1-wt/CD74-ROS1-wt entry is reported as “A (bin A for very high selectivity, ratio>30-fold)”; the TPM3-NTRK1-wt/EML4-ALK-L1196M-G1202R entry is reported as “B (bin B for high selectivity, ratio>10-fold)”; the TPM3-NTRK1-wt/EML4-ALK-wt result is recorded as “A (bin A for very high selectivity, ratio>30-fold)”.

In the case of `C[C@H]1Oc2cc(cnc2N)-c2c(nn(C)c2CC2CC2)Cc2ccnn2-c2ccc(F)cc21` [Example 177, (19R)-3-(cyclopropylmethyl)-16-fluoro-4,19-dimethyl-20-oxa-4,5,11,12,23-pentaazapentacyclo[19.3.1.0^2,^6.0^8,^12.0^13,^18]pentacosa-1(24),2,5,8,10,13,15,17,21(25),22-decaen-22-amine], in test [4], the TPM3-NTRK1-wt/CD74-ROS1-G2032R result was “A (bin A for very high selectivity, ratio>30-fold)”; the TPM3-NTRK1-wt/CD74-ROS1-wt result is listed as “A (bin A for very high selectivity, ratio>30-fold)”; the TPM3-NTRK1-wt/EML4-ALK-L1196M-G1202R result is recorded as “B (bin B for high selectivity, ratio>10-fold)”; the TPM3-NTRK1-wt/EML4-ALK-wt result is “A (bin A for very high selectivity, ratio>30-fold)”.

Consider `C[C@H]1Oc2cc(cnc2N)-c2c(CC3CC3)nn(C)c2Cc2cn(C)nc2-c2ccc(F)cc21` [Example 178, (19R)-3-(cyclopropylmethyl)-16-fluoro-5,10,19-trimethyl-20-oxa-4,5,10,11,23-pentaazapentacyclo[19.3.1.0^2,^6.0^8,^12.0^13,^18]pentacosa-1(24),2(6),3,8,11,13,15,17,21(25),22-decaen-22-amine], for which, in test [4], the TPM3-NTRK1-wt/CD74-ROS1-G2032R entry is on record as “A (bin A for very high selectivity, ratio>30-fold)”; the TPM3-NTRK1-wt/CD74-ROS1-wt entry is listed as “A (bin A for very high selectivity, ratio>30-fold)”; the TPM3-NTRK1-wt/EML4-ALK-L1196M-G1202R entry is on record as “A (bin A for very high selectivity, ratio>30-fold)”; the TPM3-NTRK1-wt/EML4-ALK-wt result is given as “A (bin A for very high selectivity, ratio>30-fold)”.

For `C[C@H]1Oc2cc(cnc2N)-c2c(nn(C)c2CC2CC2)Cc2cn(C)nc2-c2ccc(F)cc21` [Example 179, (19R)-3-(cyclopropylmethyl)-16-fluoro-4,10,19-trimethyl-20-oxa-4,5,10,11,23-pentaazapentacyclo[19.3.1.0^2,^6.0^8,^12.0^13,^18]pentacosa-1(24),2,5,8,11,13,15,17,21(25),22-decaen-22-amine], in test [4], the TPM3-NTRK1-wt/CD74-ROS1-G2032R entry is reported as “A (bin A for very high selectivity, ratio>30-fold)”; the TPM3-NTRK1-wt/CD74-ROS1-wt result is listed as “A (bin A for very high selectivity, ratio>30-fold)”; the TPM3-NTRK1-wt/EML4-ALK-L1196M-G1202R result is “A (bin A for very high selectivity, ratio>30-fold)”; the TPM3-NTRK1-wt/EML4-ALK-wt result was “A (bin A for very high selectivity, ratio>30-fold)”.

In the case of `C[C@H]1Oc2cc(cnc2N)-c2c(CC(F)F)nn(C)c2Cc2cc(C(F)F)nn2-c2ccc(F)cc21` [Example 180, (19R)-3-(2,2-difluoroethyl)-10-(difluoromethyl)-16-fluoro-5,19-dimethyl-20-oxa-4,5,11,12,23-pentaazapentacyclo[19.3.1.0^2,^6.0^8,^12.0^13,^18]pentacosa-1(24),2(6),3,8,10,13,15,17,21(25),22-decaen-22-amine], in test [4], the TPM3-NTRK1-wt/CD74-ROS1-G2032R entry is recorded as “A (bin A for very high selectivity, ratio>30-fold)”; the TPM3-NTRK1-wt/CD74-ROS1-wt result is listed as “A (bin A for very high selectivity, ratio>30-fold)”; the TPM3-NTRK1-wt/EML4-ALK-L1196M-G1202R entry is “C (bin C for moderate selectivity, ratio≥1)”; the TPM3-NTRK1-wt/EML4-ALK-wt entry was “A (bin A for very high selectivity, ratio>30-fold)”.

With `CCn1nc(OC)c2c1-c1cnc(N)c(c1)O[C@H](C)c1cc(F)ccc1-c1nn(C)cc1C2` [Example 181, (19R)-3-ethyl-16-fluoro-5-methoxy-10,19-dimethyl-20-oxa-3,4,10,11,23-pentaazapentacyclo[19.3.1.0^2,^6.0^8,^12.0^13,^18]pentacosa-1(24),2(6),4,8,11,13,15,17,21(25),22-decaen-22-amine], in test [4], the TPM3-NTRK1-wt/CD74-ROS1-G2032R result is “A (bin A for very high selectivity, ratio>30-fold)”; the TPM3-NTRK1-wt/CD74-ROS1-wt entry is “A (bin A for very high selectivity, ratio>30-fold)”; the TPM3-NTRK1-wt/EML4-ALK-L1196M-G1202R result is “C (bin C for moderate selectivity, ratio≥1)”; the TPM3-NTRK1-wt/EML4-ALK-wt entry is reported as “A (bin A for very high selectivity, ratio>30-fold)”.
